Test results reported in US11117892B2, “Pyrrolo-pyridine derivative compound, method for preparing same, and pharmaceutical composition containing same as active ingredient for prevention or treatment of protein kinase-related diseases” (DAEGU-GYEONGBUK MEDICAL INNOVATION FOUNDATION, priority 2017, dated 2021).
Like-named read-outs stand apart in the source and are kept apart here.

Legend:
Experiment in all cases: scanMAX Kinase assay panel
Format in all cases: binding
Conditions in all cases: read-out: % control
DCAMKL3 = DCAMKL3 (Homo sapiens (Human), UniProt Q9C098)
Outline: (§1)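 scanMAX kinase panel screen. Normalisation: (cpd − pos ctrl)/(neg ctrl − pos ctrl) × 100. Neg ctrl is DMSO (100%); pos ctrl gives 0%.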

MARK3 = MARK3 (Homo sapiens (Human), UniProt P27448)
Outline: as §1

CDKL2 = CDKL2 (Homo sapiens (Human), UniProt Q92772)
Outline: as §1

LOK = LOK (Homo sapiens (Human), UniProt O94804)
Outline: as §1

ADCK4 = ADCK4 (Homo sapiens (Human), UniProt Q96D53)
Outline: as §1

CDC2L1 = CDC2L1 (Homo sapiens (Human), UniProt P21127)
Outline: as §1

TIE2 = TIE2 (Homo sapiens (Human), UniProt Q02763)
Outline: as §1

CSNK2A1 = CSNK2A1 (Homo sapiens (Human), UniProt P68400)
Outline: as §1

HIPK1 = HIPK1 (Homo sapiens (Human), UniProt Q86Z02)
Outline: as §1

MAPKAPK2 = MAPKAPK2 (Homo sapiens (Human), UniProt P49137)
Outline: as §1

CTK = CTK (Homo sapiens (Human), UniProt P42679)
Outline: as §1

STK36 = STK36 (Homo sapiens (Human), UniProt Q9NRP7)
Outline: as §1

CAMK1G = CAMK1G (Homo sapiens (Human), UniProt Q96NX5)
Outline: as §1

NEK4 = NEK4 (Homo sapiens (Human), UniProt P51957)
Outline: as §1

TGFBR1 = TGFBR1 (Homo sapiens (Human), UniProt P36897)
Outline: as §1

KIT(L576P) = KIT(L576P) (Homo sapiens (Human), UniProt P10721, L576P)
Outline: as §1

PRKCI = PRKCI (Homo sapiens (Human), UniProt P41743)
Outline: as §1

HIPK3 = HIPK3 (Homo sapiens (Human), UniProt Q9H422)
Outline: as §1

ABL1-phosphorylated = ABL1-phosphorylated (Homo sapiens (Human), UniProt P00519)
Outline: as §1

PIK3CA(H1047Y) = PIK3CA(H1047Y) (Homo sapiens (Human), UniProt P42336, H1047Y)
Outline: as §1

[1] = target: JAK2(JH1domain-catalytic) (Homo sapiens (Human), UniProt O60674)
Outline: as §1

VEGFR2 = VEGFR2 (Homo sapiens (Human), UniProt P35968)
Outline: as §1

DRAK1 = DRAK1 (Homo sapiens (Human), UniProt Q9UEE5)
Outline: as §1

MET(M1250T) = MET(M1250T) (Homo sapiens (Human), UniProt P08581, M1250T)
Outline: as §1

RAF1 = RAF1 (Homo sapiens (Human), UniProt P04049)
Outline: as §1

MEK3 = MEK3 (Homo sapiens (Human), UniProt P46734)
Outline: as §1

ERK8 = ERK8 (Homo sapiens (Human), UniProt Q8TD08)
Outline: as §1

ABL1-nonphosphorylated = ABL1-nonphosphorylated (Homo sapiens (Human), UniProt P00519)
Outline: as §1

PCTK1 = PCTK1 (Homo sapiens (Human), UniProt Q00536)
Outline: as §1

ZAK = ZAK (Homo sapiens (Human), UniProt Q9NYL2)
Outline: as §1

ICK = ICK (Homo sapiens (Human), UniProt Q9UPZ9)
Outline: as §1

FLT1 = FLT1 (Homo sapiens (Human), UniProt P17948)
Outline: as §1

CHEK2 = CHEK2 (Homo sapiens (Human), UniProt O96017)
Outline: as §1

[2] = target: RSK4(Kin.Dom.1-N-terminal) (Homo sapiens (Human), UniProt Q9UK32)
Outline: as §1

DDR1 = DDR1 (Homo sapiens (Human), UniProt Q08345)
Outline: as §1

KIT(D816V) = KIT(D816V) (Homo sapiens (Human), UniProt P10721, D816V)
Outline: as §1

MLK2 = MLK2 (Homo sapiens (Human), UniProt Q02779)
Outline: as §1

CSNK1D = CSNK1D (Homo sapiens (Human), UniProt P48730)
Outline: as §1

JAK2(JH1domain-catalytic), sequence (O60674 849-1124): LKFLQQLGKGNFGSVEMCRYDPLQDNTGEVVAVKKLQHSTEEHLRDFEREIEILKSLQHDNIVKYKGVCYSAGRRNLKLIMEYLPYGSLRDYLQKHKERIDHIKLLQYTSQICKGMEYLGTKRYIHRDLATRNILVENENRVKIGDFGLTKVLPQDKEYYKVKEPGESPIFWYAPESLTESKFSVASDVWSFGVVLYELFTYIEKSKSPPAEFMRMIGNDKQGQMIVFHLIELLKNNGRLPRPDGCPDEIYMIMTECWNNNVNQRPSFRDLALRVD
KIT(L576P), sequence (P10721 26-976 L576P): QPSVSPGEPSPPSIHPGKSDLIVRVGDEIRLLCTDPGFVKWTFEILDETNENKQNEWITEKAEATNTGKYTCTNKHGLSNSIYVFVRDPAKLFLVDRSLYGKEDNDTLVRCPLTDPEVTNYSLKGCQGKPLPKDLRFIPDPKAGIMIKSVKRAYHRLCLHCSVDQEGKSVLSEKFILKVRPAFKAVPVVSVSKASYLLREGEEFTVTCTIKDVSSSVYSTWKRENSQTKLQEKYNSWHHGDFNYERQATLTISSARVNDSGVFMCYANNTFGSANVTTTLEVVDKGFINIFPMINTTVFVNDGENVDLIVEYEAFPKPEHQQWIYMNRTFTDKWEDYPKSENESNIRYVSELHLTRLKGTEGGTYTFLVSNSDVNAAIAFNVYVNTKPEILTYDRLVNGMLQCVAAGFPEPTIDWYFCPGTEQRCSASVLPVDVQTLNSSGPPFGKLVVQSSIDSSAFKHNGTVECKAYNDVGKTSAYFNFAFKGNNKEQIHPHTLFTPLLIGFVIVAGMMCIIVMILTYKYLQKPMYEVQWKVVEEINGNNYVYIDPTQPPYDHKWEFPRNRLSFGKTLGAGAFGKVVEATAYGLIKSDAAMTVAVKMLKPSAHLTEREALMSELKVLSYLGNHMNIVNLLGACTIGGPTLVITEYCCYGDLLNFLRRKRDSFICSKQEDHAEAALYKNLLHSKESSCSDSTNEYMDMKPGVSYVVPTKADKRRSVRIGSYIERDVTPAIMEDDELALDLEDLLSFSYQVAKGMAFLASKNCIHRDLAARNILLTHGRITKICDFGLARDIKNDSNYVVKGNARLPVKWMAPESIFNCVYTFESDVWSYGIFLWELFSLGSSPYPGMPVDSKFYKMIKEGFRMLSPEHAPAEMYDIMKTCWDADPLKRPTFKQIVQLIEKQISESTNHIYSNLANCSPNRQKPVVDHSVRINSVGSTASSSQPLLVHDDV
RSK4(Kin.Dom.1-N-terminal), sequence (Q9UK32 73-330): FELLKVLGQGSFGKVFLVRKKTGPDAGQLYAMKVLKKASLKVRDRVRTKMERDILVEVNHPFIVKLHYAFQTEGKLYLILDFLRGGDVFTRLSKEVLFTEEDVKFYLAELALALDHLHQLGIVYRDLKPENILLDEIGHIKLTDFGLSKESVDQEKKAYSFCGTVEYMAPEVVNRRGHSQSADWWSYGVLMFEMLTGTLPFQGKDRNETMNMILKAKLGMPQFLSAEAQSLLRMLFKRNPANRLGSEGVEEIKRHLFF
CSNK1D, sequence (P48730 whole entry): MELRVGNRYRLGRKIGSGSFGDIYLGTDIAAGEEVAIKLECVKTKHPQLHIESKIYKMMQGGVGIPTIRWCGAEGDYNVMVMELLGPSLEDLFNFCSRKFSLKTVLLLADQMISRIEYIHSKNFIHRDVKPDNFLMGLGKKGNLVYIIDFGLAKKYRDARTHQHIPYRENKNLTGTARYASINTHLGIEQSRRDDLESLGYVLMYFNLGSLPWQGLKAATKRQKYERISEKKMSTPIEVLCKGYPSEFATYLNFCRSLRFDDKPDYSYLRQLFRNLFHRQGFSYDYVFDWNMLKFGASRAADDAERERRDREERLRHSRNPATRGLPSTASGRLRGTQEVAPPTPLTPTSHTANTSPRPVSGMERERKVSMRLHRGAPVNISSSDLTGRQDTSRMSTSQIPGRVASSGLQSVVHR
RAF1, sequence (P04049 whole entry): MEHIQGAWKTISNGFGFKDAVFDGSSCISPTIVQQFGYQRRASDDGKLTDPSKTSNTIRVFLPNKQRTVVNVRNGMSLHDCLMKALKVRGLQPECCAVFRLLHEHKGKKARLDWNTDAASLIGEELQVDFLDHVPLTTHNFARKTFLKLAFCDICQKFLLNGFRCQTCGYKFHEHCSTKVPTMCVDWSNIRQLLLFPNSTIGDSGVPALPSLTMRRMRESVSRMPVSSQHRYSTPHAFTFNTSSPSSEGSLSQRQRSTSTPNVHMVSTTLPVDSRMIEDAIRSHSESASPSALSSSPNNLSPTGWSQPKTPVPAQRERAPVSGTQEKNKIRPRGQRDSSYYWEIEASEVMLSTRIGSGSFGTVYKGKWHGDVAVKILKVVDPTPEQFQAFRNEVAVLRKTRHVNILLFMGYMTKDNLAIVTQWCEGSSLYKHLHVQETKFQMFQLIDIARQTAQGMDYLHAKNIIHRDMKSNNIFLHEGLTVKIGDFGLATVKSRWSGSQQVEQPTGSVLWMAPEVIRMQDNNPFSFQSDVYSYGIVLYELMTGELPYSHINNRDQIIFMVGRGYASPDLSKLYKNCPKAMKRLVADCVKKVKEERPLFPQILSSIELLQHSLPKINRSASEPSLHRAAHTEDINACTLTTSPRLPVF
PCTK1, sequence (Q00536 whole entry): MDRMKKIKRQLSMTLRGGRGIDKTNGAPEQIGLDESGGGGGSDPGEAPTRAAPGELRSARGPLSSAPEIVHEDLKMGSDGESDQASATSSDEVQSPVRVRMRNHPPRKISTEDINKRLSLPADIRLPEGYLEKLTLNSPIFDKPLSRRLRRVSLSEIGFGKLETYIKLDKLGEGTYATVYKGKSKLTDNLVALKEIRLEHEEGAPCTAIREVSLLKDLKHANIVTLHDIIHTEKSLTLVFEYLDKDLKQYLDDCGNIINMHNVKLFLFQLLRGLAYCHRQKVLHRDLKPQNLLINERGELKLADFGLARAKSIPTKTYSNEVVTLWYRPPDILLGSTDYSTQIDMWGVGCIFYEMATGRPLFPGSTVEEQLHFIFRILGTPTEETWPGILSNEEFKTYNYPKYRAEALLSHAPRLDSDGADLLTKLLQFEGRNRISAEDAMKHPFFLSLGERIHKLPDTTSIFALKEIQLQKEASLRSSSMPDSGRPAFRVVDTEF
HIPK1, sequence (Q86Z02 whole entry): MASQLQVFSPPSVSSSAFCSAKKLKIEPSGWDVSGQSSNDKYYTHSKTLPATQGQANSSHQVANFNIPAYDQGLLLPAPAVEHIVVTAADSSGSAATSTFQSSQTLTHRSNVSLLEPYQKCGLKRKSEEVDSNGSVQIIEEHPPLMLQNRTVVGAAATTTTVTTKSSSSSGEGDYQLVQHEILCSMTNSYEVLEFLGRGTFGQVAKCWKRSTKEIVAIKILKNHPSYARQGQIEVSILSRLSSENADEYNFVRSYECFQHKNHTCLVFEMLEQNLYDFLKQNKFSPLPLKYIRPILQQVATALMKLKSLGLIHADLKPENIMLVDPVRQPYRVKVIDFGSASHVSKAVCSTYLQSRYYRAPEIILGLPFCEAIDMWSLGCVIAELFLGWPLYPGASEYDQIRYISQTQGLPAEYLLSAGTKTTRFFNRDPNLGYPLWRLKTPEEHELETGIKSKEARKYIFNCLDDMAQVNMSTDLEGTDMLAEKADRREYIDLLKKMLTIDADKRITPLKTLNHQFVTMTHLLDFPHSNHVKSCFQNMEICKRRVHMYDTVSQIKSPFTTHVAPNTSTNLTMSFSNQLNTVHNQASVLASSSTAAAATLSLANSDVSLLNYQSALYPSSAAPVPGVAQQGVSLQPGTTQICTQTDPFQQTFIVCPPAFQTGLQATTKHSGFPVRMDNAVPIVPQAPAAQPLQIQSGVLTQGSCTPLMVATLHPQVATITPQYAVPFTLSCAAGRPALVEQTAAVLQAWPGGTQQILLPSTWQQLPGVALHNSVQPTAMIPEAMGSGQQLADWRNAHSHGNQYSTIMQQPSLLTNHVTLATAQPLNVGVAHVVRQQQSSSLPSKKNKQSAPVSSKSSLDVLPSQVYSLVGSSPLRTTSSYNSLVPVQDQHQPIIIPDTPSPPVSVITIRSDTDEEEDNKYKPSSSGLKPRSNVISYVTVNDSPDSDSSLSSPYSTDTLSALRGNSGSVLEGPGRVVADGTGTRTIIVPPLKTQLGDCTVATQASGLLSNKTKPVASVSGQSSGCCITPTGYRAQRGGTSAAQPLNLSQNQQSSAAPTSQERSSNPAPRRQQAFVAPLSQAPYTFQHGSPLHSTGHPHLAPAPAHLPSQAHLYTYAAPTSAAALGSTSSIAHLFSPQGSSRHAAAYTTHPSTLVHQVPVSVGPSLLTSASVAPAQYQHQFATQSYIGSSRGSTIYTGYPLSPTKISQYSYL
PRKCI, sequence (P41743 whole entry): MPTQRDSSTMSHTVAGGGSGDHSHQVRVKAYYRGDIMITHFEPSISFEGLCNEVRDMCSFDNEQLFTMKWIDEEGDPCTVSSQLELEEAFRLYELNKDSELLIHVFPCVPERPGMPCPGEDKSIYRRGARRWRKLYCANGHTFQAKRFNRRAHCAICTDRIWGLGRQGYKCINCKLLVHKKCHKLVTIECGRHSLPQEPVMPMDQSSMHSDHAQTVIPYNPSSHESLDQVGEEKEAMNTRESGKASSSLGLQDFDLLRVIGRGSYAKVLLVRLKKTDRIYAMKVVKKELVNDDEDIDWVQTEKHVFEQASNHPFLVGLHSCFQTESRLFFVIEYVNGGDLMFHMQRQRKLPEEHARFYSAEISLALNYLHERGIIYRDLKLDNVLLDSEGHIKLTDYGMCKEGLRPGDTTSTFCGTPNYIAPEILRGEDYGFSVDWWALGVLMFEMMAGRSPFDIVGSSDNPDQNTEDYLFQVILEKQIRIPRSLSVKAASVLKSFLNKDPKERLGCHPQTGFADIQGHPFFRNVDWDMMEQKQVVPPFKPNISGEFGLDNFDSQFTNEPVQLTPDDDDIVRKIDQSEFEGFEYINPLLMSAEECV
KIT(D816V), sequence (P10721 26-976 D816V): as the sequence (P10721 26-976 L576P) above, with P551L, D791V counted along it

SMILES	remaining binding at 1 µM (DCAMKL3)	remaining binding at 1 µM (MARK3)	remaining binding at 1 µM (CDKL2)	remaining binding at 1 µM (LOK)	remaining binding at 1 µM (ADCK4)	remaining binding at 1 µM (CDC2L1)	remaining binding at 1 µM (TIE2)	remaining binding at 1 µM (CSNK2A1)	remaining binding at 1 µM (HIPK1)	remaining binding at 1 µM (MAPKAPK2)	remaining binding at 1 µM (CTK)	remaining binding at 1 µM (STK36)	remaining binding at 1 µM (CAMK1G)	remaining binding at 1 µM (NEK4)	remaining binding at 1 µM (TGFBR1)	remaining binding at 1 µM (KIT(L576P))	remaining binding at 1 µM (PRKCI)	remaining binding at 1 µM (HIPK3)	remaining binding at 1 µM (ABL1-phosphorylated)	remaining binding at 1 µM (PIK3CA(H1047Y))	also measured
CCNc1cc(Nc2ccc(C(=O)N3CCC(N4CCOCC4)CC3)cc2OC)nc2[nH]cc(C(F)(F)F)c12 [Example 57, (4-((4-(ethylamino)-3-(trifluoromethyl)-1H-pyrrolo[2,3-b]pyridin-6-yl)amino)-3-methoxyphenyl) (4-morpholinopiperidin-1-yl)methanone]	88%	92%	90%	84%	75%	90%	89%	100%	54%	51%	84%	98%	63%	99%	69%	100%	63%	71%	61%	73%	remaining binding at 1 µM [1]: 100%; remaining binding at 1 µM (VEGFR2): 95%; remaining binding at 1 µM (DRAK1): 67%; remaining binding at 1 µM (MET(M1250T)): 100%; remaining binding at 1 µM (RAF1): 72%; remaining binding at 1 µM (MEK3): 81%; remaining binding at 1 µM (ERK8): 93%; remaining binding at 1 µM (ABL1-nonphosphorylated): 51%; remaining binding at 1 µM (PCTK1): 83%; remaining binding at 1 µM (ZAK): 87%; remaining binding at 1 µM (ICK): 100%; remaining binding at 1 µM (FLT1): 94%; remaining binding at 1 µM (CHEK2): 47%; remaining binding at 1 µM [2]: 100%; remaining binding at 1 µM (DDR1): 98%; remaining binding at 1 µM (KIT(D816V)): 83%; remaining binding at 1 µM (MLK2): 77%; percent of control binding at 1 µM (CSNK1D): 30%
CCNc1cc(Nc2ccc(C(=O)N3CCC(N4CCOCC4)CC3)cc2OC)nc2[nH]cc(C#N)c12 [Example 18, 4-(ethylamino)-6-((2-methoxy-4-(4-morpholinopiperidine-1-carbonyl)phenyl)amino)-1H-pyrrolo[2,3-b]pyridine-3-carbonitrile]	84%	100%	100%	91%	100%	100%	82%	83%	63%	21%	100%	98%	71%	86%	100%	77%	76%	74%	87%	71%	remaining binding at 1 µM [1]: 70%; remaining binding at 1 µM (VEGFR2): 63%; remaining binding at 1 µM (DRAK1): 56%; remaining binding at 1 µM (MET(M1250T)): 100%; remaining binding at 1 µM (RAF1): 97%; remaining binding at 1 µM (MEK3): 4.3%; remaining binding at 1 µM (ERK8): 99%; remaining binding at 1 µM (ABL1-nonphosphorylated): 97%; remaining binding at 1 µM (PCTK1): 98%; remaining binding at 1 µM (ZAK): 96%; remaining binding at 1 µM (ICK): 84%; remaining binding at 1 µM (FLT1): 46%; remaining binding at 1 µM (CHEK2): 4.1%; remaining binding at 1 µM [2]: 81%; remaining binding at 1 µM (DDR1): 98%; remaining binding at 1 µM (KIT(D816V)): 82%; remaining binding at 1 µM (MLK2): 72%; percent of control binding at 1 µM (CSNK1D; CSNK1D, 1 uM): 5.3%
